Key:
Type in all cases: in vivo
Amaranthus retroflexus [1] = experiment: Post-emergence herbicidal activity, glasshouse pot test; design: key: 0 = no damage to plant, 5 = total damage to plant; details: Application post-emergence, rate 1000 g/ha, evaluated after 13 days
Method in brief: (§1)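 Pot-grown seedlings, sown in standard soil, were sprayed 8 days after sowing and kept in a controlled glasshouse (24/16 °C, 14 h photoperiod, 65% humidity). Injury was assessed visually 13 days later on a scale where 5 means total damage.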

zea mays [2] = experiment: as above; design: key: 0 = no damage to plant, 5 = total damage to plant; details: Application post-emergence, rate 1000 g/ha, evaluated after 13 days
Method in brief: as §1

Echinochloa crus-galli [3] = experiment: as above; design: key: 0 = no damage to plant, 5 = total damage to plant; details: Application post-emergence, rate 1000 g/ha, evaluated after 13 days
Method in brief: as §1

Alopecurus myosuroides [4] = experiment: as above; design: key: 0 = no damage to plant, 5 = total damage to plant; details: Application post-emergence, rate 1000 g/ha, evaluated after 13 days
Method in brief: as §1

Abutilon theophrasti [5] = experiment: as above; design: key: 0 = no damage to plant, 5 = total damage to plant; details: Application post-emergence, rate 1000 g/ha, evaluated after 13 days
Method in brief: as §1

Setaria faberi [6] = experiment: as above; design: key: 0 = no damage to plant, 5 = total damage to plant; details: Application post-emergence, rate 1000 g/ha, evaluated after 13 days
Method in brief: as §1

Amaranthus retroflexus [7] = experiment: Pre-emergence herbicidal activity, glasshouse pot test; details: pre-emergence spray, rate 1000 g/ha, evaluated after 13 days, scale 0-5
Method in brief: (§2)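 Damage was rated at 13 days from 0 (none) to 5 (total), in a glasshouse kept at 24/16 °C, 14 h light and 65% humidity with watering twice daily. The aqueous spray of active ingredient in 50:50 acetone/water plus 0.5% Tween 20 was applied to soil one day post-sowing, before emergence.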

zea mays [8] = experiment: as above; details: pre-emergence spray, rate 1000 g/ha, evaluated after 13 days, scale 0-5
Method in brief: as §2

Echinochloa crus-galli [9] = experiment: as above; details: pre-emergence spray, rate 1000 g/ha, evaluated after 13 days, scale 0-5
Method in brief: as §2

Alopecurus myosuroides [10] = experiment: as above; details: pre-emergence spray, rate 1000 g/ha, evaluated after 13 days, scale 0-5
Method in brief: as §2

Abutilon theophrasti [11] = experiment: as above; details: pre-emergence spray, rate 1000 g/ha, evaluated after 13 days, scale 0-5
Method in brief: as §2

Setaria faberi [12] = experiment: as above; details: pre-emergence spray, rate 1000 g/ha, evaluated after 13 days, scale 0-5
Method in brief: as §2

Row | Compound | AMARE herbicidal damage score (Amaranthus retroflexus [1]) | ZEAMX herbicidal damage score (zea mays [2]) | ECHCG herbicidal damage score (Echinochloa crus-galli [3]) | ALOMY herbicidal damage score (Alopecurus myosuroides [4]) | ABUTH herbicidal damage score (Abutilon theophrasti [5]) | SETFA herbicidal damage score (Setaria faberi [6]) | AMARE damage score, application pre-emergence (Amaranthus retroflexus [7]) | ZEAMX damage score, application pre-emergence (zea mays [8]) | ECHCG damage score, application pre-emergence (Echinochloa crus-galli [9]) | ALOMY damage score, application pre-emergence (Alopecurus myosuroides [10]) | ABUTH damage score, application pre-emergence (Abutilon theophrasti [11]) | SETFA damage score, application pre-emergence (Setaria faberi [12])
1 | COC1=C(C)C(O)N(c2ccc(N)cn2)C1=O (stereo not drawn) [AI28] | 1 | 1 | 1 | 1 | 1 | 1 | 1 | 1 | 0 | 1 | 2 | 1
2 | COC1=C(C)C(O)N(c2ccc([N+](=O)[O-])cn2)C1=O (stereo not drawn) [AI29] | 0 | 1 | 0 | 0 | 0 | 0 | 2 | 0 | 0 | 1 | 0 | 1
3 | COC1=C(C)C(O)N(c2cc(C(C)C)c(C(=O)NC(C)(C)C#N)cn2)C1=O (stereo not drawn) [AI31] | 5 | 2 | 5 | 4 | 5 | 5 | 5 | 2 | 3 | 3 | 2 | 2
4 | COC1=C(C)C(O)N(c2cc(C)c(Br)cn2)C1=O (stereo not drawn) [AI32] | 5 | 2 | 5 | 5 | 5 | 5 | 5 | 1 | 4 | 2 | 0 | 2
5 | COC1=C(C)C(O)N(c2cc(C)c(C(=O)NC3(C#N)CC3)cn2)C1=O (stereo not drawn) [AI34] | 5 | 3 | 4 | 4 | 5 | 5 | 4 | 0 | 4 | 3 | 1 | 3
6 | CCC(C)(C)NC(=O)c1cnc(N2C(=O)C(OC)=C(C)C2O)cc1C (stereo not drawn) [AI35] | 5 | 3 | 5 | 5 | 5 | 5 | 5 | 2 | 5 | 4 | 5 | 5
7 | COC1=C(C)C(O)N(c2cc(C)c(C(=O)NC(C)C(C)C)cn2)C1=O (stereo not drawn) [AI36] | 5 | 3 | 5 | 5 | 5 | 5 | 5 | 2 | 4 | 4 | 5 | 5
8 | CCC(CNC(=O)c1cnc(N2C(=O)C(OC)=C(C)C2O)cc1C)C(F)(F)F (stereo not drawn) [AI37] | 5 | 5 | 5 | 5 | 5 | 5 | 5 | 2 | 5 | 4 | 5 | 5
9 | COC1=C(C)C(O)N(c2cc(C(F)(F)F)c(C(=O)CC#N)cn2)C1=O (stereo not drawn) [AI38] | 5 | 2 | 5 | 4 | 4 | 4 | 5 | 2 | 4 | 3 | 1 | 3
10 | COC1=C(Br)C(=O)N(c2cc(C(F)(F)F)ccn2)C1O (stereo not drawn) [AJ1, 4-bromo-2-hydroxy-3-methoxy-1-[4-(trifluoromethyl)-2-pyridyl]-2H-pyrrol-5-one] | 5 | 2 | 5 | 5 | 5 | 5 | 4 | 2 | 5 | 4 | 5 | 5
11 | COC1=C(OC)C(O)N(c2cc(F)ccn2)C1=O (stereo not drawn) [AK3] | 4 | 4 | 5 | 4 | 5 | 5 | 5 | 2 | 4 | 2 | 5 | 3
12 | COC1=C(OC)C(O)N(c2cc(C(F)(F)F)c(C(F)(F)F)cn2)C1=O (stereo not drawn) [AK4] | 5 | 2 | 5 | 3 | 5 | 3 | 1 | 1 | 0 | 1 | 1 | 0
13 | COC1=C(OC)C(O)N(c2cc(Br)ccn2)C1=O (stereo not drawn) [AK5] | 5 | 0 | 5 | 5 | 5 | 5 | 1 | 0 | 4 | 1 | 0 | 1
14 | COC1=C(OC)C(O)N(c2cc(OC)ccn2)C1=O (stereo not drawn) [AK6] | 0 | 0 | 1 | 1 | 1 | 0 | 0 | 0 | 0 | 0 | 0 | 0
15 | COC1=C(OC)C(O)N(c2cc(Cl)c(Cl)cn2)C1=O (stereo not drawn) [AK7] | 5 | 1 | 5 | 4 | 5 | 5 | 0 | 0 | 4 | 0 | 2 | 0
16 | COC1=C(OC)C(O)N(c2cc(C(F)(F)F)ccn2)C1=O (stereo not drawn) [AK8] | 5 | 3 | 5 | 4 | 5 | 5 | 5 | 2 | 4 | 3 | 5 | 3
